In patent US20240132484A1, “BROAD SPECTRUM ANTIVIRAL COMPOUNDS TARGETING THE SKI COMPLEX” (priority 2020, published 2024):
Several values for one entry are separate records, joined by “and”; a condition that tells them apart may be missing. Equal values may be shown once. Read-outs that look alike come from different tables or passages of the source.

Key:
WDR61 = WDR61 (Homo sapiens, UniProt Q9GZS3); test: Surface Plasmon Resonance with pure WDR61 protein
SARS2 = format: cell-based, SARS-CoV-2; conditions: for Percentage Infection Relative to Appropriate DMSO Control / Infection Data: Percentage Infection Relative to Appropriate DMSO Control / Percentage Infection Relative to Appropriate DMSO Control, Mean / Infection Data, Percentage Infection Relative to Appropriate DMSO Control: avg background subtraction; for Infection Data: Percentage Infection Relative to Appropriate DMSO Control: replicate wells; for Infection Data: Average, Mean: average of Exp 1-3 (SMW475, SMW477, SMW478), n 9; for Infection Data, Average, Mean percentage infection relative to DMSO control: Average of Exp 1 (SMW491) and Exp 2 (SMW492); for Percentage Infection Relative to Appropriate DMSO Control, Mean: Average of Exp 1 and Exp 2, n=4; for Infection Data, Percentage Infection Relative to Appropriate DMSO Control: single well

COc1ccc(CNCCc2ccccc2F)c(OCC(O)CN2CCN(C)CC2)c1 (racemic) [UMB18G]
direct binding to WDR61 by SPR (WDR61): binding directly to WDR61 | Percentage Infection Relative to Appropriate DMSO Control (SARS2; 1 uM, Exp 1 (SMW454), single wells): 79.68% and 100.00% and 102.30% | Infection Data: Percentage Infection Relative to Appropriate DMSO Control (SARS2; 1 uM, Exp 1 (SMW475)): 59.52% and 81.22% and 48.39% | Infection Data: Percentage Infection Relative to Appropriate DMSO Control (SARS2; 1 uM, Exp 2 (SMW477)): 30.54% and 44.61% and 49.97% | Infection Data: Percentage Infection Relative to Appropriate DMSO Control (SARS2; 1 uM, Exp 3 (SMW478)): 92.92% and 83.96% and 93.97% | Infection Data: Average, Mean (SARS2; 1 uM): 65.01% | Percentage Infection Relative to Appropriate DMSO Control (SARS2; 5 uM, Exp 1 (SMW454), single wells): 82.33% and 99.01% and 94.32% | Infection Data: Percentage Infection Relative to Appropriate DMSO Control (SARS2; 5 uM, Exp 1 (SMW475)): 11.41% and 21.71% and 5.92% | Infection Data: Percentage Infection Relative to Appropriate DMSO Control (SARS2; 5 uM, Exp 2 (SMW477)): 9.13% and 26.77% and 20.94% | Infection Data: Percentage Infection Relative to Appropriate DMSO Control (SARS2; 5 uM, Exp 3 (SMW478)): 28.65% and 43.74% and 34.06% | Infection Data: Average, Mean (SARS2; 5 uM): 22.48% | Percentage Infection Relative to Appropriate DMSO Control (SARS2; 10 uM, Exp 1 (SMW454), single wells): 84.64% and 105.70% and 105.02% | Infection Data: Percentage Infection Relative to Appropriate DMSO Control (SARS2; 10 uM, Exp 1 (SMW475)): 7.16% and 14.38% and 4.59% | Infection Data: Percentage Infection Relative to Appropriate DMSO Control (SARS2; 10 uM, Exp 2 (SMW477)): 10.76% and 16.40% and 10.07% | Infection Data: Percentage Infection Relative to Appropriate DMSO Control (SARS2; 10 uM, Exp 3 (SMW478)): 46.05% and 27.62% and 30.93% | Infection Data: Average, Mean (SARS2; 10 uM): 18.66% | Percentage Infection Relative to Appropriate DMSO Control (SARS2; 25 uM, Exp 1 (SMW454), single wells): 54.89% and 58.50% and 60.94% | Infection Data: Percentage Infection Relative to Appropriate DMSO Control (SARS2; 25 uM, Exp 1 (SMW475)): 0.07% and −0.35% and −1.40% | Infection Data: Percentage Infection Relative to Appropriate DMSO Control (SARS2; 25 uM, Exp 2 (SMW477)): 1.11% and 0.67% and 1.76% | Infection Data: Percentage Infection Relative to Appropriate DMSO Control (SARS2; 25 uM, Exp 3 (SMW478)): 3.99% and 4.14% and 2.78% | Infection Data: Average, Mean (SARS2; 25 uM): 1.42% | Percentage Infection Relative to Appropriate DMSO Control (SARS2; 50 uM, Exp 1 (SMW454), single wells): 28.95% and 40.45% and 40.98% | Infection Data: Percentage Infection Relative to Appropriate DMSO Control (SARS2; 50 uM, Exp 1 (SMW475)): −0.48% and −1.48% and 0.34% | Infection Data: Percentage Infection Relative to Appropriate DMSO Control (SARS2; 50 uM, Exp 2 (SMW477)): 1.36% and 0.07% and 1.60% | Infection Data: Percentage Infection Relative to Appropriate DMSO Control (SARS2; 50 uM, Exp 3 (SMW478)): 0.69% and 2.33% and 1.45% | Infection Data: Average, Mean (SARS2; 50 uM): 0.65% | Infection Data, Average, Mean percentage infection relative to DMSO control (SARS2; n=4, 1 uM): 65.84% and 39.37% and 49.93% and 57.24% | Infection Data, Average, Mean percentage infection relative to DMSO control (SARS2; n=4, 5 uM): 54.32% and 40.70% and 42.82% and 28.04% | Infection Data, Average, Mean percentage infection relative to DMSO control (SARS2; n=4, 10 uM): 8.53% and 5.08% and 5.96% and 7.33% | Infection Data, Average, Mean percentage infection relative to DMSO control (SARS2; n=4, 25 uM): 11.20% and 7.36% and 4.36% and 11.41% | Infection Data, Average, Mean percentage infection relative to DMSO control (SARS2; n=4, 50 uM): 8.04% and 0.83% and 7.39% and 10.06% | Infection Data, Average, Mean (SARS2; Average of Exp 1-3, n 9, 1 uM): 79.70% | Infection Data, Average, Mean (SARS2; Average of Exp 1-3, n 9, 5 uM): 44.64% | Infection Data, Average, Mean (SARS2; Average of Exp 1-3, n 9, 10 uM): 52.11% | Infection Data, Average, Mean (SARS2; Average of Exp 1-3, n 9, 25 uM): 19.49% | Infection Data, Average, Mean (SARS2; Average of Exp 1-3, n 9, 50 uM): 11.46% | Percentage Infection Relative to Appropriate DMSO Control, Mean (SARS2; 1 uM): 59.34% and 41.11% | Percentage Infection Relative to Appropriate DMSO Control, Mean (SARS2; 5 uM): 26.29% and 13.69% | Percentage Infection Relative to Appropriate DMSO Control, Mean (SARS2; 10 uM): 6.07% and 4.47% | Percentage Infection Relative to Appropriate DMSO Control, Mean (SARS2; 25 uM): 3.40% and 3.46% | Percentage Infection Relative to Appropriate DMSO Control, Mean (SARS2; 50 uM): 2.64% and 2.63% | Infection Data, Percentage Infection Relative to Appropriate DMSO Control (SARS2; Exp 1 (SMW491), 10 uM): 5.19% and 1.05% and 0.23% and 2.20% and 5.21% and 4.17% and 3.28% and 4.40% | Percentage Infection Relative to Appropriate DMSO Control (SARS2; Exp 1 (SMW506), 10 uM, single wells): 6.99% and 10.55% and 9.19% and 3.42% | Percentage Infection Relative to Appropriate DMSO Control (SARS2; Exp 1 (SMW506), 25 uM, single wells): 4.49% and 2.30% and 4.05% and 3.63% | Percentage Infection Relative to Appropriate DMSO Control (SARS2; Exp 1 (SMW506), 50 uM, single wells): 4.22% and 4.54% and 5.07% and 2.41% | Percentage Infection Relative to Appropriate DMSO Control (SARS2; Exp 2 (SMW466), 10 uM): 10.03% and 6.17% and 9.36% | Percentage Infection Relative to Appropriate DMSO Control (SARS2; Exp 2 (SMW466), 25 uM): −0.69% and −1.02% and −1.54% | Percentage Infection Relative to Appropriate DMSO Control (SARS2; Exp 2 (SMW466), 50 uM): −0.97% and −1.80% and 1.96% | Infection Data, Percentage Infection Relative to Appropriate DMSO Control (SARS2; Exp 2 (SMW492), 1 uM): 87.68% and 68.32% and 72.99% and 69.05% and 75.23% and 75.22% and 50.23% and 54.62% | Infection Data, Percentage Infection Relative to Appropriate DMSO Control (SARS2; Exp 2 (SMW492), 10 uM): 15.18% and 12.71% and 12.92% and 8.48% and 10.42% and 9.51% and 5.72% and 6.91% | Percentage Infection Relative to Appropriate DMSO Control (SARS2; Exp 2 (SMW492), 1 uM, single wells): 34.50% and 31.39% and 22.69% and 24.33% | Percentage Infection Relative to Appropriate DMSO Control (SARS2; Exp 2 (SMW492), 5 uM, single wells): 5.38% and 4.98% and 4.24% and 4.87% | Percentage Infection Relative to Appropriate DMSO Control (SARS2; Exp 2 (SMW492), 10 uM, single wells): 3.43% and 3.30% and 3.52% and 1.74% | Percentage Infection Relative to Appropriate DMSO Control (SARS2; Exp 2 (SMW492), 25 uM, single wells): 4.70% and 2.08% and 5.51% and 0.65%
